Assay: Inhibition of IL-6 release in IL-17A/TNFalpha-stimulated HDF cells preincubated with IL-17A and TNFalpha for 5 hrs followed by […] to assay plate and measured after 18 to 20 hrs by europium cryptate and Alexa 665 reagent based FRET assay
Type: functional, cell-based
Settings: Homo sapiens, NHDF

SMILES | IC50 [nM]
Cc1nonc1C(=O)N[C@H](c1cn2ncc([C@@H]3C[C@](C)(O)CCN3C(=O)[C@@H]3CCC(F)(F)CO3)nc2n1)C1CCC(F)(F)CC1 | 3.98
Cc1nonc1C(=O)N[C@H](c1cn2ncc([C@H]3C[C@](C)(O)CCN3C(=O)[C@@H]3CCC(F)(F)CO3)nc2n1)C1CCC(F)(F)CC1 | 5.01
Cc1nonc1C(=O)N[C@H](c1cn2ncc([C@@H]3C[C@@](O)(C(F)(F)F)CCN3C(=O)[C@@H]3CCC(F)(F)CO3)nc2n1)C1CCC(F)(F)CC1 | 2.51

The next lines start with the values.

IC50 [nM] | SMILES
3.98 | Cc1nonc1C(=O)N[C@H](c1cn2ncc([C@@H]3COCCN3C(=O)C3CCC(F)(F)CO3)nc2n1)C(C1CC1)C1CC1 (stereo partly specified)
3.98 | Cc1nonc1C(=O)N[C@H](c1cn2ncc([C@H]3C[C@H](O)CCN3C(=O)[C@@H]3CCC(F)(F)CO3)nc2n1)C1CCC(F)(F)CC1
6.31 | Cc1nonc1C(=O)N[C@H](c1cn2ncc([C@@H]3COCCN3C(=O)[C@@H]3CCC(F)(F)CO3)nc2n1)C1CCC(F)(F)CC1
